Here are results for eleven compounds from ChEMBL document CHEMBL2176878, “Synthesis and biological characterization of 3-substituted 1H-indoles as ligands of GluN2B-containing N-methyl-D-aspartate receptors. Part 2” (J Med Chem, 2012).

The target in series [1] is Glutamate receptor ionotropic, NMDA 2B (Rattus norvegicus, UniProt Q00960). Description: Displacement of [3H]ifenprodil from NMDA receptor GluN2B subunit in Wistar rat cerebral cortex after 120 mins. The series is classed as tissue-based.
For series [2], the target named is Glutamate receptor ionotropic, NMDA 2B (Rattus norvegicus) (UniProt Q00960). Description: Antagonist activity at NMDA receptor GluN2B subunit in Wistar rat CA1 pyramidal neurons assessed as decrease in EPSC amplitude at holding potential of -60 mV at 100 nM measured at 5 mins by patch clamp electrophysiological assay in presence of Mg2+ free ACSF containing CNQX, glycine, bicuculline relative to control. The series is classed as functional, cell-based. Further details: scale not given: the % may be the effect or the level left. The following applies: Pyramidal neuron.

A short description of series [3]: Dissociation constant, pKa of the compound. The format is physicochemical.
Series [4] has as its target Glutamate receptor ionotropic, NMDA 2B (Mus musculus) (UniProt Q01097). Description: Antagonist activity at NMDA receptor GluN2B subunit in FVB mouse CA1 pyramidal neurons assessed as decrease in EPSC amplitude at holding potential of -60 mV at 100 nM measured at 5 mins by patch clamp electrophysiological assay in presence of Mg2+ free ACSF containing CNQX, glycine, bicuculline relative to control. Details: scale not given: the % may be the effect or the level left. The format is functional, cell-based. As to conditions: Pyramidal neuron.

Series [5] has the same target. The experiment in a line: Antagonist activity at NMDA receptor GluN2B subunit in FVB mouse CA1 pyramidal neurons assessed as decrease in EPSC amplitude at holding potential of -60 mV at 50 uM measured at 5 mins by patch clamp electrophysiological assay in presence of Mg2+ free ACSF containing CNQX, glycine, bicuculline relative to control. The format is functional, cell-based. As to conditions: Pyramidal neuron. Details: scale not given: the % may be the effect or the level left.

Series [6] deals with Glutamate receptor ionotropic, NMDA 2B (Rattus norvegicus) (UniProt Q00960). The experiment in a line: Displacement of [3H]ifenprodil from NMDA receptor GluN2B subunit in Wistar rat cerebral cortex at 10 uM after 120 mins. The format is tissue-based.
Series [7] has as its target Glutamate receptor ionotropic, NMDA 2B (Mus musculus) (UniProt Q01097). Description: Antagonist activity at NMDA receptor GluN2B subunit in FVB mouse CA1 pyramidal neurons assessed as decrease in EPSC amplitude at holding potential of -60 mV at 6 uM measured at 5 mins by patch clamp electrophysiological assay in presence of Mg2+ free ACSF containing CNQX, glycine, bicuculline relative to control. The format is functional, cell-based. Details: scale not given: the % may be the effect or the level left. As to conditions: Pyramidal neuron.

The target in series [8] is Glutamate NMDA receptor; Grin1/Grin2b (Rattus norvegicus, UniProt P35439+Q00960). Description: Inhibition of rat NMDA receptor NR1F/NR2B subunit expressed in Xenopus laevis oocytes after 2 days by two-electrode voltage-clamp electrophysiological assay. The format is cell-based, Oocyte.

Glutamate receptor ionotropic, NMDA 2B, sequence (Q00960 whole entry): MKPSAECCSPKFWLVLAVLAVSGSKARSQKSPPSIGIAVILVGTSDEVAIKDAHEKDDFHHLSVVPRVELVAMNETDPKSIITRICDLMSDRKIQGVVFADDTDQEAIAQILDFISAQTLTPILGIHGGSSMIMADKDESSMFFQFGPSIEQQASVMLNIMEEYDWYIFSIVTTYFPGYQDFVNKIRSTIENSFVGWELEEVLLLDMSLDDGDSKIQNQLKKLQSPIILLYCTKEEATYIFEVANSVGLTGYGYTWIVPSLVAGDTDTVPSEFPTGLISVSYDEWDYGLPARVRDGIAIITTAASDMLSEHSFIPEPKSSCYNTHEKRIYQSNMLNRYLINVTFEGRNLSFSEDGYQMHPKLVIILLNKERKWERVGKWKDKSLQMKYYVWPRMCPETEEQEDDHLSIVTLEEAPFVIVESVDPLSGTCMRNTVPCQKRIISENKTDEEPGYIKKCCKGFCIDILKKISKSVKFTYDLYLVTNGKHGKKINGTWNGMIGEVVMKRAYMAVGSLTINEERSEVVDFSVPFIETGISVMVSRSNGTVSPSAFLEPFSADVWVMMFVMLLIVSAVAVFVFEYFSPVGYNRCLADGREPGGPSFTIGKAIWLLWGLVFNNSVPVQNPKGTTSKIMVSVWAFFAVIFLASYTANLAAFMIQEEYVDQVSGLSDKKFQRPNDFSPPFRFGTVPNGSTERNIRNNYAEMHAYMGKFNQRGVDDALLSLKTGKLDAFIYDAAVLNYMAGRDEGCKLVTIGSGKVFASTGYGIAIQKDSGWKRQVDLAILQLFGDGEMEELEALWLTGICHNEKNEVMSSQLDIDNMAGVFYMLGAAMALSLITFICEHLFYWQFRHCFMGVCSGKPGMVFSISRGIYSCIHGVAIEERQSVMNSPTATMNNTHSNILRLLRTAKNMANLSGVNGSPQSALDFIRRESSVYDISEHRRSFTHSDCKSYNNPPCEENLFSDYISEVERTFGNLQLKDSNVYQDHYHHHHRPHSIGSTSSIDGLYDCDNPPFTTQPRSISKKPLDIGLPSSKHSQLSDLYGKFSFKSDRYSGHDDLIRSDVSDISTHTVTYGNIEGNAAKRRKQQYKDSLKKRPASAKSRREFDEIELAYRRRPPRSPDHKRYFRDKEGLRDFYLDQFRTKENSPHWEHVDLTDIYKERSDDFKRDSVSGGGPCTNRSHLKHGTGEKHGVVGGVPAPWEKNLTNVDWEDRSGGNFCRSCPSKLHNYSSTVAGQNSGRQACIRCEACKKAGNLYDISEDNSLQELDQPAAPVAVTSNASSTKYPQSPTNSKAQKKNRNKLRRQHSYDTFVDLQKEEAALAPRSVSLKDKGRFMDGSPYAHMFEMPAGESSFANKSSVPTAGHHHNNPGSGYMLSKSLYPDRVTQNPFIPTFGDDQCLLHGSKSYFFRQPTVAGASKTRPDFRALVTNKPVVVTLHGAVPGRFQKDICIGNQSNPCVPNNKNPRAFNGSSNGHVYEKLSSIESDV
Glutamate receptor ionotropic, NMDA 2B (Mus musculus), sequence (Q01097 whole entry): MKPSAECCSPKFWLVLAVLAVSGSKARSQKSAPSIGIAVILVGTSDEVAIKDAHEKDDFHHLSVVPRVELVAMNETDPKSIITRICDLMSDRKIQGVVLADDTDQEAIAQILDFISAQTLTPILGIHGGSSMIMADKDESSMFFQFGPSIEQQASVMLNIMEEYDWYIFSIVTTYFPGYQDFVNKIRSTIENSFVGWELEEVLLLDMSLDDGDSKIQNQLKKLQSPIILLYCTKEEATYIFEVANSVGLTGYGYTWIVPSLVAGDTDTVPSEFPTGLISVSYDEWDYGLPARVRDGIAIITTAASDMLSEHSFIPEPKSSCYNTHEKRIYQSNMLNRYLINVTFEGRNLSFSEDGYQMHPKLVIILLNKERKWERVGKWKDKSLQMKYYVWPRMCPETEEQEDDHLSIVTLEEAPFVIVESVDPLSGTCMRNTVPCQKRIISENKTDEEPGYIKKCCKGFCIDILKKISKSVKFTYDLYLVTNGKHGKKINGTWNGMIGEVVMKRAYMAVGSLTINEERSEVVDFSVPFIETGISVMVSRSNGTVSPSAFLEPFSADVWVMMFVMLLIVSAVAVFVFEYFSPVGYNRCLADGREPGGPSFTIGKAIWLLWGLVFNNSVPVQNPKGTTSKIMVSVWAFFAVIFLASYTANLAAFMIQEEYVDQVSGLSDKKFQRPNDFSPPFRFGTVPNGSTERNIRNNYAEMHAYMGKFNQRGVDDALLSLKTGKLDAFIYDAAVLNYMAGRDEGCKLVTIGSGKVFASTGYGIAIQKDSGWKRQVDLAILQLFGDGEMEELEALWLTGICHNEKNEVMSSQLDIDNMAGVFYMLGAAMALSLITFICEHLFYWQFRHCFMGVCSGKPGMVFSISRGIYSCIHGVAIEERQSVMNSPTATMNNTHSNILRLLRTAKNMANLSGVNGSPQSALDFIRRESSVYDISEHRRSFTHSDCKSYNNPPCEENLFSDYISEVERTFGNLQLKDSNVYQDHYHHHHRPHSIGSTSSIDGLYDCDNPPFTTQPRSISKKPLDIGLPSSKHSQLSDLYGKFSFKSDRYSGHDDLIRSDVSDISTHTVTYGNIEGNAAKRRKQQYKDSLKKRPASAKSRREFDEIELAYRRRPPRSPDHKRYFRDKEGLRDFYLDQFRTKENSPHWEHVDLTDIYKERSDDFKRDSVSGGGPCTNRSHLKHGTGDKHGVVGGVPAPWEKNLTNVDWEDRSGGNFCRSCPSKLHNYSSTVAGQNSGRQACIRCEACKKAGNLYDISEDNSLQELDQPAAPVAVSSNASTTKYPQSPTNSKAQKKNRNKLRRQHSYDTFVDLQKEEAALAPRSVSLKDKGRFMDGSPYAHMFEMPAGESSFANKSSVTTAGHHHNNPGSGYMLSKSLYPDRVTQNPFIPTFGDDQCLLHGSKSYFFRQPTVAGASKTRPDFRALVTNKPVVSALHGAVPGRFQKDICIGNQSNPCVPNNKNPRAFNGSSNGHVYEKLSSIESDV
Glutamate receptor ionotropic, NMDA 2B (Rattus norvegicus), sequence (Q00960 27-1482 limits assumed): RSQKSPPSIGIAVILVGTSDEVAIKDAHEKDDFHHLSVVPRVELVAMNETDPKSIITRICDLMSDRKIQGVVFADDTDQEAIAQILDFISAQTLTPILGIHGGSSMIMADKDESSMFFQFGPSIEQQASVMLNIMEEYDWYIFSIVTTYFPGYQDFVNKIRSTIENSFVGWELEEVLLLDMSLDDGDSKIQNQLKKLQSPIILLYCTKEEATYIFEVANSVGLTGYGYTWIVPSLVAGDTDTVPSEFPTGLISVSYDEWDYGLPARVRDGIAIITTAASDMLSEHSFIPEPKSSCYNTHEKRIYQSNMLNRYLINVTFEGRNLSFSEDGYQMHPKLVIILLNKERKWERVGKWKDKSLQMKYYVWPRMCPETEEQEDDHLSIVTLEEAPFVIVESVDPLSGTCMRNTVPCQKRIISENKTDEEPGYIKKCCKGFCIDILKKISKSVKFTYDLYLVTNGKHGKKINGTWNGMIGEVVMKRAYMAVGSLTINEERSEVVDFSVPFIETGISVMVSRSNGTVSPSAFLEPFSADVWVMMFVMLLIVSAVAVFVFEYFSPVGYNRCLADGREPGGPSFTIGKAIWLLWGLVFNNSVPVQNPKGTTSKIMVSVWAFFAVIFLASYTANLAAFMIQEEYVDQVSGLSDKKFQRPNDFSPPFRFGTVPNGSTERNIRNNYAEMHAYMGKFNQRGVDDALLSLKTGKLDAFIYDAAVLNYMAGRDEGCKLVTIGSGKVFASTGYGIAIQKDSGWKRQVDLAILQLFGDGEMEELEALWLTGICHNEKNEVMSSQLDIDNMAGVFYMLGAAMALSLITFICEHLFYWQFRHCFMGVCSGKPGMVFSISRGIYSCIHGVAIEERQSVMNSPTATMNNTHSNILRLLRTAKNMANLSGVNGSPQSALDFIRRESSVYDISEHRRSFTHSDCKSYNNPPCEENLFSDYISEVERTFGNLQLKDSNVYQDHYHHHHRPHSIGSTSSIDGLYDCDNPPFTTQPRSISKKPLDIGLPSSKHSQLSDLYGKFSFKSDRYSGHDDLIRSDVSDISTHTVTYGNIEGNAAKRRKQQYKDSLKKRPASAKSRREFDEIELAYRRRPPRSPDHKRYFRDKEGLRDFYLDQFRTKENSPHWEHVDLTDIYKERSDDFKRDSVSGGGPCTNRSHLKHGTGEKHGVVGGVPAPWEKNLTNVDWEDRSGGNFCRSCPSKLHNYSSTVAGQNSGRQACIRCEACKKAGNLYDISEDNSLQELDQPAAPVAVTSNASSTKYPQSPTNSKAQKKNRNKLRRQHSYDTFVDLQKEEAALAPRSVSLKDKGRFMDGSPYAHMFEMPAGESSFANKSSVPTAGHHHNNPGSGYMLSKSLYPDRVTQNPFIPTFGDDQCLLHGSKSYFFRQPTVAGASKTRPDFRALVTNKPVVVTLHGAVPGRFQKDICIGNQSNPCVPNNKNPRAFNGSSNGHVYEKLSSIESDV

`CS(=O)(=O)Nc1ccc2[nH]cc(C(=O)CN3CCC(Cc4ccccc4)CC3)c2c1` came in with a 50% inhibitory concentration (IC50) in series [1] of 320 nM.
As for `CS(=O)(=O)Nc1ccc2c(C(=O)CN3CCC(Cc4ccccc4)CC3)c[nH]c2c1`, the Activity in series [2] came to 50%; in series [4] it was 23.3%. This compound returned a pKa in series [3] of 9.97. Moreover, the half-maximal inhibitory concentration (IC50) in series [1] turned out to be 8.9 nM.
Regarding `Nc1ccc2[nH]cc(C(=O)CN3CCC(Cc4ccccc4)CC3)c2c1`, the IC50 in series [1] worked out at 1180 nM.
With `N[C@H](CCCP(=O)(O)O)C(=O)O`, the Activity in series [5] was 28%.
Take `Nc1ccc2[nH]cc(C(=O)C(=O)N3CCC(Cc4ccccc4)CC3)c2c1`: the inhibition in series [6] came to 40%.
With `O=C(CN1CCC(Cc2ccccc2)CC1)c1c[nH]c2cc(O)ccc12`, the pKa in series [3] came out at 9.63.
On to `CS(=O)(=O)Nc1ccc2[nH]cc(C(=O)C(=O)N3CCC(Cc4ccccc4)CC3)c2c1`, for which the inhibition in series [6] amounted to 42%.
As for `C[C@@H](CN1CCC(Cc2ccccc2)CC1)[C@@H](O)c1ccc(O)cc1`, the Activity in series [7] is 29%. In series [8], this compound showed a half-inhibitory concentration (IC50) of 17 nM.
For `Nc1ccc2c(C(=O)CN3CCC(Cc4ccccc4)CC3)c[nH]c2c1`, the IC50 in series [1] was 2270 nM.
On the same count and under the same terms, as for `CS(=O)(=O)Nc1ccc2c(C(=O)C(=O)N3CCC(Cc4ccccc4)CC3)c[nH]c2c1`, the figure is 63 nM.
Turning to `Nc1ccc2c(C(=O)C(=O)N3CCC(Cc4ccccc4)CC3)c[nH]c2c1`, the inhibition in series [6] was 32%.
